Assay [1] relates to E. coli NCTC 13353 (CTX-M15, OXA-1). Briefly: Antibacterial activity, MIC by agar dilution (CLSI). The assay is classed as cell-based. Particulars: Escherichia coli, read-out: MIC. In outline: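 CLSI agar dilution on Mueller Hinton agar containing doubling compound dilutions, inoculated at about 10^4 CFU/spot from fresh cultures. Plates were incubated 18 h at 37 °C in ambient air before growth scoring. MIC is reported in mcg/ml.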
For orientation: In agar dilution the substance is mixed into plates at graded concentrations.

Assay [2] concerns T1, Class C beta-lactamase, E. coli M50 (CMY/DHA).
T1 construct: no borders, tags or purification printed
The assay is classed as biochemical. The following applies: read-out: Beta-lactamase enzyme inhibition IC50. The gist of the method: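 Crude enzyme preincubated with inhibitor 10 min at 37 °C, then nitrocefin (100 uM) added for 5 min. Absorbance read at 485 nm; IC50 obtained from sigmoidal dose-response fit of absorbance versus concentration.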

Assay [3] has as its system K. pneumoniae H521 (KPC, SHV, TEM). Put plainly: Antibacterial activity, MIC by agar dilution (CLSI). The format is cell-based. Particulars: Klebsiella pneumoniae, read-out: MIC. The gist of the method:
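Agar dilution per CLSI on Mueller Hinton agar with doubling compound dilutions, about 10^4 CFU/spot by multipoint inoculator. Plates incubated 16-20 h at 35±2° C in ambient air; procedure also gives 37° C for 18 h. MIC (mcg/ml) scored as growth or no growth.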

Setting [4] is: NCTC13353, Table 2, E. Coli NCTC 13353 (CTX-M15, OXA-1).
[5] abbreviates: NCTC13353, Table 3, E. coli NCTC 13353.
[6] abbreviates: Table 2, K. pneumoniae H521 (KPC, SHV, TEM).

The structures appear in SMILES notation. Converted amounts (≈) assume the structure as drawn. Like-named read-outs stand apart in the source and are kept apart here.

The MIC is the smallest concentration in the dilution series that meets the test's criterion for growth inhibition. The IC50 is the midpoint of a concentration-inhibition curve. Consider `NCCOc1ccccc1CC(=O)NNC(=O)[C@@H]1CC[C@@H]2CN1C(=O)N2OS(=O)(=O)O` [Example 2, (2S,5R)-Sulfuric Acid mono-[2-(N′-{2-[2-(2-amino-ethoxy)-phenyl]-acetyl}-hydrazinocarbonyl)-7-oxo-1,6-diaza-bicyclo[3.2.1]oct-6-yl]ester], for which the MIC in assay [1] (setting [4]) amounted to 1 µg/mL (≈ 2.19 µM); in assay [1] (setting [5]), 0.5 µg/mL (≈ 1.09 µM); in assay [3] (setting [6]), 1 µg/mL (≈ 2.19 µM); in assay [3] (Table 3, K. pneumoniae H 521), 2 µg/mL (≈ 4.37 µM). The half-inhibitory concentration (IC50) in assay [2] worked out at 122 nM.
As to `O=C(Cc1ccc(O)cc1)NNC(=O)[C@@H]1CC[C@@H]2CN1C(=O)N2OS(=O)(=O)[O-].[Na+]` [Example 1, Sodium Salt of (2S,5R)-Sulfuric Acid mono-[2-(N′-(4-hydroxyphenyl-acetyl)-hydrazinocarbonyl)-7-oxo-1,6-diaza-bicyclo[3.2.1]oct-6-yl]ester], the minimal inhibitory concentration (MIC) in assay [1] (setting [4]) is 0.5 µg/mL; in assay [1] (setting [5]) it was 0.5 µg/mL; in assay [3] (setting [6]), 1 µg/mL; in assay [3] (Table 3, K. pneumoniae H 521), 1 µg/mL. The IC50 in assay [2] amounted to 5 nM.

Values taken from patent publication US9822115B2, “Nitrogen containing compounds and their use as antibacterial agents” (WOCKHARDT LIMITED, priority 2014, dated 2017).
